Among the data in ChEMBL document CHEMBL5726876, “NHE3-binding compounds and methods for inhibiting phosphate transport” (2019) are IC50 values, retold here.

pIC50: −log10 of the molar value. “And” between values parts separate entries of the source, which are not always exact repeats. Identical values can stand only once. Some results are limits rather than exact numbers.

The first assay in a line: Cell-based activity under Prompt Conditions: Cell-based activity under Prompt Conditions. Rat or human NHE3-mediated Na+-dependent H+ antiport was measured using a modification of the pH sensitive dye method originally reported by Paradiso (PNAS USA. 81:7436-7440, 1984). Opossum kidney (OK) cells were obtained from the ATCC and propagated per their instructions. The rat NHE3 gene (GenBank M85300) or the human NHE3 gene (GenBank NM_004174.1) was introduced into OK cells via electroporation, and cells were seeded into 96 well plates and grown overnight. Medium was aspirated from the wells, cells were washed twice with NaCl-HEPES buffer (100 mM NaCl, 50 mM HEPES, 10 mM glucose, 5 mM KCl, 2 mM CaCl2, 1 mM MgCl2, pH 7.4), then incubated for 30 min at room temperature with NH4Cl-HEPES buffer (20 mM NH4Cl, 80 mM NaCl, 50 mM HEPES, 5 mM KCl, 2 mM CaCl2, 1 mM MgCl2, pH 7.4) containing 5 μM bis(acetoxymethyl) 3,3′-(3′,6′-bis(acetoxymethoxy)-5-((acetoxymethoxy)carbonyl)-3-oxo-3H-spiro[isobenzofuran-1,9′-xanthene]-2′,7′-diyl)dipropanoate (BCECF-AM).Cells were washed twice with Ammonium free, Na+-free HEPES (100 mM choline, 50 mM HEPES, 10 mM glucose, 5 mM KCl, 2 mM CaCl2, 1 mM MgCl2, pH 7.4) and incubated in the same buffer for 10 minutes at room temperature to lower intracellular pH. […] Initial rates were plotted as the average 2 or more replicates, and pIC50 values were estimated using GraphPad Prism.
One may read the pIC50 as the negative decadic logarithm of the IC50, by convention in mol/L. For `CN1Cc2c(Cl)cc(Cl)cc2[C@@H](c2cccc(S(=O)(=O)NCCOCCOCCNC(=O)NCCCCNC(=O)NCCOCCOCCNS(=O)(=O)c3cccc([C@H]4CN(C)Cc5c(Cl)cc(Cl)cc54)c3)c2)C1`, the pIC50 was > 5.00 and 7.30.

As to `CN1Cc2c(Cl)cc(Cl)cc2[C@H](c2cccc(S(=O)(=O)NCCOCCOCCN(C)C(=O)CCC(CCC(=O)N(C)CCOCCOCCNS(=O)(=O)c3cccc([C@@H]4CN(C)Cc5c(Cl)cc(Cl)cc54)c3)(CCC(=O)N(C)CCOCCOCCNS(=O)(=O)c3cccc([C@@H]4CN(C)Cc5c(Cl)cc(Cl)cc54)c3)NC(=O)COCC(=O)O)c2)C1`, the pIC50 was 7.70. On the same count and under the same terms, with `O=C(NCCCCNC(=O)NCCOCCOCCNS(=O)(=O)c1ccc(O[C@H]2c3cc(Cl)cc(F)c3C[C@@H]2N2CC[C@@H](O)C2)cc1)NCCOCCOCCNS(=O)(=O)c1ccc(O[C@H]2c3cc(Cl)cc(F)c3C[C@@H]2N2CC[C@@H](O)C2)cc1` the figure was > 5.00. On the same count and under the same terms, the value for `CN1Cc2c(Cl)cc(Cl)cc2[C@H](c2cccc(S(=O)(=O)NCCOCCOCCNC(=O)CCC(CCC(=O)NCCOCCOCCNS(=O)(=O)c3cccc([C@@H]4CN(C)Cc5c(Cl)cc(Cl)cc54)c3)(CCC(=O)NCCOCCOCCNS(=O)(=O)c3cccc([C@@H]4CN(C)Cc5c(Cl)cc(Cl)cc54)c3)NC(=O)NCC(=O)O)c2)C1` was 7.53; that for `CC(=O)C(CCC(=O)NCCOCCOCCNS(=O)(=O)c1cccc([C@@H]2CN(C)Cc3c(Cl)cc(Cl)cc32)c1)(CCC(=O)NCCOCCOCCNS(=O)(=O)c1cccc([C@@H]2CN(C)Cc3c(Cl)cc(Cl)cc32)c1)CCC(=O)NCCOCCOCCNS(=O)(=O)c1cccc([C@@H]2CN(C)Cc3c(Cl)cc(Cl)cc32)c1` was 6.50; that for `CN(C)[C@H]1Cc2c(Cl)cc(Cl)cc2[C@@H]1Oc1ccc(S(=O)(=O)NCCOCCOCCNC(=O)CCC(C)(N)CCC(=O)NCCOCCOCCNS(=O)(=O)c2ccc(O[C@H]3c4cc(Cl)cc(Cl)c4C[C@@H]3N(C)C)cc2)cc1` was 8.60. `CN1Cc2c(Cl)cc(Cl)cc2[C@H](c2cccc(S(=O)(=O)NCCOCCOCCNC(=O)CCC(CCC(=O)NCCOCCOCCNS(=O)(=O)c3cccc([C@@H]4CN(C)Cc5c(Cl)cc(Cl)cc54)c3)(CCC(=O)NCCOCCOCCNS(=O)(=O)c3cccc([C@@H]4CN(C)Cc5c(Cl)cc(Cl)cc54)c3)NC(=O)N[C@@H](CO)C(=O)O)c2)C1`: the pIC50 was 7.90. Same read-out and setting: the value for `CN1Cc2c(Cl)cc(Cl)cc2[C@H](c2cccc(S(=O)(=O)NCCOCCOCCN(C)C(=O)CCC(N)(CCC(=O)N(C)CCOCCOCCNS(=O)(=O)c3cccc([C@@H]4CN(C)Cc5c(Cl)cc(Cl)cc54)c3)CCC(=O)N(C)CCOCCOCCNS(=O)(=O)c3cccc([C@@H]4CN(C)Cc5c(Cl)cc(Cl)cc54)c3)c2)C1` was 7.80; that for `CN(C)[C@H]1Cc2c(F)cc(Cl)cc2[C@@H]1Oc1ccc(S(=O)(=O)NCCOCCOCCNC(=O)NCCCCNC(=O)NCCOCCOCCNS(=O)(=O)c2ccc(O[C@H]3c4cc(Cl)cc(F)c4C[C@@H]3N(C)C)cc2)cc1` was > 5.00.

Take `CN1Cc2c(Cl)cc(Cl)cc2[C@H](c2cccc(S(=O)(=O)NCCOCCOCCNC(=O)CCC(CCC(=O)NCCOCCOCCNS(=O)(=O)c3cccc([C@@H]4CN(C)Cc5c(Cl)cc(Cl)cc54)c3)(CCC(=O)NCCOCCOCCNS(=O)(=O)c3cccc([C@@H]4CN(C)Cc5c(Cl)cc(Cl)cc54)c3)NC(=O)NC(CO)CO)c2)C1`: the pIC50 was 7.10. On the same count and under the same terms, with `CN(C)CC(=O)NC(CCC(=O)N(C)CCOCCOCCNS(=O)(=O)c1cccc([C@@H]2CN(C)Cc3c(Cl)cc(Cl)cc32)c1)(CCC(=O)N(C)CCOCCOCCNS(=O)(=O)c1cccc([C@@H]2CN(C)Cc3c(Cl)cc(Cl)cc32)c1)CCC(=O)N(C)CCOCCOCCNS(=O)(=O)c1cccc([C@@H]2CN(C)Cc3c(Cl)cc(Cl)cc32)c1` the figure was 7.50; with `CN(C)[C@H]1Cc2c(Cl)cc(Cl)cc2[C@@H]1Oc1ccc(S(=O)(=O)NCCOCCOCCNC(=O)CCC(C)(CCC(=O)NCCOCCOCCNS(=O)(=O)c2ccc(O[C@H]3c4cc(Cl)cc(Cl)c4C[C@@H]3N(C)C)cc2)NC(=O)CCC(=O)O)cc1`, 8.00; with `CN1Cc2c(Cl)cc(Cl)cc2[C@H](c2cccc(S(=O)(=O)NCCOCCOCCNC(=O)NCCCC(CCCNC(=O)NCCOCCOCCNS(=O)(=O)c3cccc([C@@H]4CN(C)Cc5c(Cl)cc(Cl)cc54)c3)(CCCNC(=O)NCCOCCOCCNS(=O)(=O)c3cccc([C@@H]4CN(C)Cc5c(Cl)cc(Cl)cc54)c3)NC(=O)COCC(=O)O)c2)C1`, 9.20. The same measure, in the same setting: with `CN1Cc2c(Cl)cc(Cl)cc2[C@H](c2cccc(S(=O)(=O)NCCOCCOCCNC(=O)CCC(CCC(=O)NCCOCCOCCNS(=O)(=O)c3cccc([C@@H]4CN(C)Cc5c(Cl)cc(Cl)cc54)c3)(CCC(=O)NCCOCCOCCNS(=O)(=O)c3cccc([C@@H]4CN(C)Cc5c(Cl)cc(Cl)cc54)c3)NC(=O)NC(CO)(CO)CO)c2)C1` the figure was > 5.00; with `C[C@@H](O)[C@H](NC(=O)NC(CCC(=O)NCCOCCOCCNS(=O)(=O)c1cccc([C@@H]2CN(C)Cc3c(Cl)cc(Cl)cc32)c1)(CCC(=O)NCCOCCOCCNS(=O)(=O)c1cccc([C@@H]2CN(C)Cc3c(Cl)cc(Cl)cc32)c1)CCC(=O)NCCOCCOCCNS(=O)(=O)c1cccc([C@@H]2CN(C)Cc3c(Cl)cc(Cl)cc32)c1)C(N)=O`, 7.20; with `CN1Cc2c(Cl)cc(Cl)cc2[C@H](c2cccc(S(=O)(=O)NCCOCCOCCNC(=O)NCCC(CCNC(=O)NCCOCCOCCNS(=O)(=O)c3cccc([C@@H]4CN(C)Cc5c(Cl)cc(Cl)cc54)c3)(CCNC(=O)NCCOCCOCCNS(=O)(=O)c3cccc([C@@H]4CN(C)Cc5c(Cl)cc(Cl)cc54)c3)NC(=O)COCC(=O)O)c2)C1`, 8.20. As for `CC(O)C(CCC(=O)NCCOCCOCCNS(=O)(=O)c1cccc([C@@H]2CN(C)Cc3c(Cl)cc(Cl)cc32)c1)(CCC(=O)NCCOCCOCCNS(=O)(=O)c1cccc([C@@H]2CN(C)Cc3c(Cl)cc(Cl)cc32)c1)CCC(=O)NCCOCCOCCNS(=O)(=O)c1cccc([C@@H]2CN(C)Cc3c(Cl)cc(Cl)cc32)c1` (stereo partly specified), the pIC50 was 7.60.

As for `CN1Cc2c(Cl)cc(Cl)cc2[C@H](c2cccc(S(=O)(=O)NCCOCCOCCNC(=O)Nc3ccc(NC(=O)NCCOCCOCCNS(=O)(=O)c4cccc([C@@H]5CN(C)Cc6c(Cl)cc(Cl)cc65)c4)cc3)c2)C1`, the pIC50 was 8.60. Take `CN1Cc2c(Cl)cc(Cl)cc2[C@H](c2cccc(S(=O)(=O)NCCOCCOCCNC(=O)NCCCC(CCCNC(=O)NCCOCCOCCNS(=O)(=O)c3cccc([C@@H]4CN(C)Cc5c(Cl)cc(Cl)cc54)c3)(CCCNC(=O)NCCOCCOCCNS(=O)(=O)c3cccc([C@@H]4CN(C)Cc5c(Cl)cc(Cl)cc54)c3)NC(=O)NC[C@H](O)[C@@H](O)[C@H](O)[C@H](O)CO)c2)C1`: the pIC50 is 5.80. The same measure, in the same setting: the value for `CN1Cc2c(Cl)cc(Cl)cc2[C@H](c2cccc(S(=O)(=O)NCCOCCOCCNC(=O)CCC(CCCNC(=O)NCCOCCOCCNS(=O)(=O)c3cccc([C@@H]4CN(C)Cc5c(Cl)cc(Cl)cc54)c3)(CCC(=O)NCCOCCOCCNS(=O)(=O)c3cccc([C@@H]4CN(C)Cc5c(Cl)cc(Cl)cc54)c3)NC(=O)NCP(=O)(O)O)c2)C1` was 7.30. The same measure, in the same setting: with `CN1Cc2c(Cl)cc(Cl)cc2[C@H](c2cccc(NC(=O)[C@H](O)[C@@H](O)[C@H](O)[C@H](O)CO)c2)C1` the figure was 7.60; with `CN1Cc2c(Cl)cc(Cl)cc2[C@H](c2cccc(S(=O)(=O)NCCOCCOCCNC(=O)NCCC(N)(CCNC(=O)NCCOCCOCCNS(=O)(=O)c3cccc([C@@H]4CN(C)Cc5c(Cl)cc(Cl)cc54)c3)CCNC(=O)NCCOCCOCCNS(=O)(=O)c3cccc([C@@H]4CN(C)Cc5c(Cl)cc(Cl)cc54)c3)c2)C1`, 7.35. On the same count and under the same terms, with `CN1Cc2c(Cl)cc(Cl)cc2[C@H](c2cccc(S(=O)(=O)NCCOCCOCCNC(=O)NCCCCNC(=O)NCCOCCOCCNS(=O)(=O)c3cccc([C@@H]4CN(C)Cc5c(Cl)cc(Cl)cc54)c3)c2)C1` [TENAPANOR] the figure was 8.03 and 8.00.

A short description of the next assay: Cell-based assay of NaP2b activity: The rate of phosphate (Pi) uptake into cells was measured using a modification of a literature method (see Mohrmann et al. Am. J. Phys. 250(3 pt 1):G323-30, 1986). Briefly, HEK293 cells were transiently transfected with an expression clone encoding either rat or human NaP2b. The next day, transfected cells were treated with a pharmacological agent to minimize endogenous PiT-mediated phosphate transport activity, such that the only remaining sodium-dependent phosphate transport activity is that which was bestowed by introduction of the NaP2b gene. Cells were incubated with radioactive inorganic phosphate in the presence or absence of varying concentrations of test compound. After a short time, cells were washed, harvested, and the amount of hot phosphate taken up in the cells determined by liquid scintillation counting.HEK293 cells were obtained from the American Type Culture collection and propagated per their instructions. Expression clones for rat and human NaP2b (SLC34A2) were obtained from Open Biosystems (Catalog numbers MRN1768-9510282, and MHS1010-99823026, respectively). There are two putative splice variants of human NaP2b, designated as isoform a and isoform b (NCBI Reference Sequences: NP_006415.2 and NP_ 001171470.1, respectively). […] […].
In the case of `CN1Cc2c(Cl)cc(Cl)cc2[C@H](c2cccc(S(=O)(=O)NCCOCCOCCNC(=O)NCCCCNC(=O)NCCOCCOCCNS(=O)(=O)c3cccc([C@@H]4CN(C)Cc5c(Cl)cc(Cl)cc54)c3)c2)C1` [TENAPANOR], the pIC50 was > 4.50.

The nature of a further assay: Cell-Based Assay of NHE3 Activity under Persistent Conditions: The ability of compounds to inhibit Rat NHE3-mediated Na+-dependent H+ antiport after application and washout was measured using a modification of the pH sensitive dye method described above. Opossum kidney (OK) cells were obtained from the ATCC and propagated per their instructions. The rat NHE3 gene was introduced into OK cells via electroporation, and cells were seeded into 96 well plates and grown overnight. Medium was aspirated from the wells, cells were washed twice with NaCl-HEPES buffer (100 mM NaCl, 50 mM HEPES, 10 mM glucose, 5 mM KCl, 2 mM CaCl2, 1 mM MgCl2, pH 7.4), then overlayed with NaCl-HEPES buffer containing 0-30 μM test compound.After a 60 min incubation, the test drug containing buffer was aspirated from the cells, cells were washed twice with NaCl-HEPES buffer without drug, then incubated for 30 min at room temperature with NH4Cl-HEPES buffer (20 mM NH4Cl, 80 mM NaCl, 50 mM HEPES, 5 mM KCl, 2 mM CaCl2, 1 mM MgCl2, pH 7.4) containing 5 uM BCECF-AM. Cells were washed twice with Ammonium free, Natfree HEPES (100 mM choline, 50 mM HEPES, 10 mM glucose, 5 mM KCl, 2 mM CaCl2, 1 mM MgCl2, pH 7.4) and incubated in the same buffer for 10 minutes at room temperature to lower intracellular pH. […] Initial rates were plotted as the average 2 or more replicates, and pIC50 values w.
Compound `CN1Cc2c(Cl)cc(Cl)cc2[C@@H](c2cccc(S(=O)(=O)NCCOCCOCCNC(=O)NCCCCNC(=O)NCCOCCOCCNS(=O)(=O)c3cccc([C@H]4CN(C)Cc5c(Cl)cc(Cl)cc54)c3)c2)C1` had a pIC50 of 5.60.

Take `CN1Cc2c(Cl)cc(Cl)cc2[C@H](c2cccc(S(=O)(=O)NCCOCCOCCNC(=O)NCCCCNC(=O)NCCOCCOCCNS(=O)(=O)c3cccc([C@@H]4CN(C)Cc5c(Cl)cc(Cl)cc54)c3)c2)C1` [TENAPANOR]: the pIC50 was 8.40.
